Measured values published in PMC6692352, “DF2726A, a new IL-8 signalling inhibitor, is able to counteract chemotherapy-induced neuropathic pain” (Scientific Reports, 2019).

Key:
CYP 3A4 = CYP 3A4 (Homo sapiens, UniProt P08684); assay: CYP inhibition 3A4; assay type: in vitro ADME
From the text: Table 1 Physicochemical and in Vitro ADME Properties of DF2726A. | column: DF2726A

TRPA1 = assay: Western blot of DRG of oxaliplatin rats, TRPA1; assay type: in vivo, male Wistar rats; details: 30 mg/kg os
Experimental: (§1) Animals were sacrificed and dorsal root ganglia (DRG) (L4-L6) were removed and stored at […]. They were homogenized on ice-cold lysis buffer [20 mM Tris–HCl (pH 7.5), 10 mM NaF, 150 mM NaCl, 1% Nonidet P-40, 1 mM phenylmethylsulfonyl fluoride, 1 mM Na3VO4, leupeptin and trypsin inhibitor 10 μg/mL; 20 µl/sample, as previously described.
(§2) After 1 h, tissue lysates were obtained by centrifugation at 20,000 g for 15 min at 4 °C. Protein concentrations were estimated by the Bio-Rad protein assay using bovine serum albumin as standard.
(§3) DRG lysate proteins (30 μg) were dissolved in Laemmli sample buffer, boiled for 5 min, and separated on SDS-polyacrylamide gel elctrophoresis and transferred onto nitrocellulose membrane (240 mA for 40 min at room temperature). […] The protein bands were scanned and densitometrically analyzed with a model GS-700 imaging densitometer (Bio-Rad Laboratories, Milan, Italy). […]

[1] = Aqueous solubility (SiriusT3); assay type: physicochemical
Experimental: vehicle were seeded in the upper compartment. The two compartments were separated by 5 µm pre-size polycarbonate filter (polyvinylpyrrolidone-free for PMN chemotaxis). The chamber was […]
Physicochemical characterization […]
and a turbidity-sensing device. […]
water/HBSS to a final concentration of 10 μM. Cell membrane homogenates (48 μg protein) were […]

TRPM8 = assay: Western blot of DRG of oxaliplatin rats, TRPM8; assay type: in vivo, male Wistar rats; details: 30 mg/kg os
Experimental: as §1, §2, §3

[2] = system: oxaliplatin-induced mechanical allodynia; assay: Oxaliplatin-induced mechanical allodynia (Dynamic Plantar Aesthesiometer); assay type: in vivo, male Wistar rats; details: 30 mg/kg os for 24 days; at 14 (P < 0.05) and 21 days (P < 0.01) vs Oxa + saline
Experimental: Behavioural tests were performed on male Wistar rats (200–250 g, Harlan, Italy) housed in the animal care facility at the Department of Pharmacy of the University of Naples Federico II, Italy, as previously described. Animals were housed, in a group of five, in a room with controlled temperature (22 ± 1 °C), humidity (60 ± 10%) and light (12 h per day); food and water were available ad libitum. All animals were weighted on the day of each treatment. All behavioural tests were performed between 09:00 and 17:00 h, and the animals were used only once. Animal care and manipulations were conducted in conformity with International and National law and policies (EU Directive 2010/63/EU for animal experiments, ARRIVE guidelines, and the Basel declaration including the 3R concept). The procedures reported here were approved by the Institutional Committee on the Ethics of Animal Experiments (CVS) of the University of Naples Federico II and by Ministero della Salute under protocol no. 2014-00884607. […]
To assess for changes in sensation or in the development of mechanical allodynia, sensitivity to tactile stimulation was measured using the Dynamic Plantar Aesthesiometer (DPA, Ugo Basile, Italy), which is an automated version of the von Frey hair assessment. […] The means of paw withdrawal (expressed in grams) were calculated from an average of four separate measurements. […]

CYP 3A4, sequence (P08684 whole entry): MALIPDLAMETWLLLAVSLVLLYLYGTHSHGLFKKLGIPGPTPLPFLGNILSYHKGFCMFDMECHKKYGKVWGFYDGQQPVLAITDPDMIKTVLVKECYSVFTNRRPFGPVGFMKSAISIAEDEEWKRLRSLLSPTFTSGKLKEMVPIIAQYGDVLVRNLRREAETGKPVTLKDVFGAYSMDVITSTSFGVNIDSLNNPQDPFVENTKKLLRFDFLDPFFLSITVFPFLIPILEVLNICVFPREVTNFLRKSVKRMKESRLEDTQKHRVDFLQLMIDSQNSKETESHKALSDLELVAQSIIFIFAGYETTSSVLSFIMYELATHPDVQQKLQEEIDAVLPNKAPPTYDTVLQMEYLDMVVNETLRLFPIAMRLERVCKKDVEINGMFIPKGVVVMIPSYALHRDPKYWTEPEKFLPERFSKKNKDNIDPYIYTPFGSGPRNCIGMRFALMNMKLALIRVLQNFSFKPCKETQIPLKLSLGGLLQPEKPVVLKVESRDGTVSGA

With `CC(C)(C(=O)O)c1ccc(Nc2nc(C(F)(F)F)cs2)cc1` [DF2726A] as the molecule, how does the IC50 (CYP 3A4) read?
Its IC50 is greater than 30 µM.

And the “TRPA1 expression in DRG of oxaliplatin rats” value (TRPA1)?
The value was “significant reduction in the expression”.

What about the Acqueous solubility [1] of the same molecule?
Its Acqueous solubility is greater than 30 mg/mL.

What about the “TRPM8 expression in DRG of oxaliplatin rats” value (TRPM8) of the same molecule?
The value was “significant reduction in the expression”.

What about the “Effect on oxaliplatin-induced mechanical allodynia (paw withdrawal threshold, DPA test)” value [2] of the same molecule?
Its value is “significant anti-allodynic effect”.
